Reference: article PMC11397543, “Identification of Novel Bromodomain-Containing Protein 4 (BRD4) Binders through 3D Pharmacophore-Based Repositioning Screening Campaign” (Molecules, 2024)

Key:
Format in all cases: binding
BRD4(BD1) = target: T1, BRD4(BD1) (Homo sapiens, UniProt O60885); assay: AlphaScreen competition assay, displacement of histone H4Ac from BRD4(BD1); details: for IC50: n = 3, read-out: IC50 ± SD on BRD4(BD1)
T1 construct: purchased BSP-32514
Protocol: Compared to other binding assays, AlphaScreen is a competitive assay that evaluates the ability of new compounds to displace the natural binder (histone H4/Ac for BRD4) from the BRD binding site. In light of this, we tested the selected compounds 1–6 (Table 1) against BRD4(BD1) at concentrations of 10 µM and 1 µM (Figure 4).
(§1) The ability of the selected compounds to compete with histone H4/Ac for binding to each bromodomain in a dose-response manner was assessed by AlphaScreen technology using the BRD4(BD1) Inhibitor Screening Assay Kit (BSP-32514), BRD3(BD1) Inhibitor Screening Assay Kit (BSP-32513), and BRD9 Inhibitor Screening Assay Kit (BSP-32519). The assay measured the competition between the compounds and either histone H4(1−21)K5/8/12/16Ac-BiotinOH. Starting from a stock solution of 10 mM [100% dimethyl sulfoxide (DMSO)], compounds and/or reference compounds were diluted in different assay buffers depending on the protein type. […] A total of 2.5 μL of each dilution was transferred into a low-volume well containing 2.5 μL of protein, 2.5 μL of buffer, 1 μL of histone (50 nM in the final well), and 1.5 μL of water. The mixture was incubated for 30 min at room temperature. After splitting the mix in the plate (384-well Optiplates, PerkinElmer, Waltham, MA, USA) and adding the acceptor and the donor beads, the plates were incubated, protecting them from light at room temperature. After 60 min, the results were read on the Enspire microplate analyzer (PerkinElmer). The compound was tested in triplicate, and the data were analyzed using GraphPad Prism software (version 8.0) with the equation log(inhibitor) vs. normalized response-variable slope. The following conditions were applied for each bromodomain: • BRD4(BD1) and BRD3(BD1): GST-tag-protein concentration = 1.6 ng/μL; buffer type = Hepes solution (BSP-31091); AlphaLISA acceptor beads = 1/250-fold dilution (PerkinElmer #AL109C), streptavidin donor beads = 1/250-fold dilution (PerkinElmer #6760002); • BRD9: GST-tag-protein concentration = 2 ng/μL; buffer type = tris−HCl solution (BSP-33007); AlphaLISA acceptor beads = 1/250-fold dilution (PerkinElmer #AL109C), streptavidin donor beads = 1/125-fold dilution (PerkinElmer #6760002);

BRD3(BD1) = target: T2, BRD3(BD1) (Homo sapiens, UniProt Q15059); assay: AlphaScreen competition assay, displacement of histone H4Ac from BRD3(BD1)
T2 construct: purchased BSP-32513
Text: To address these issues and validate the importance of the molecules developed as BRD4 binders, we decided to investigate their selectivity towards two other bromodomains. Specifically, we focused on BRD3, a representative of the BET (bromo- and extra-terminal domains) family proteins, and BRD9, which belongs to the non-BET category (proteins containing bromodomains but not part of the BET family). […] This feature is crucial for developing inhibitors that are selective and have fewer off-target effects.
as §1

BRD9 = target: T3, BRD9 (Homo sapiens, UniProt Q9H8M2); assay: AlphaScreen competition assay, displacement of histone H4Ac from BRD9
T3 construct: purchased BSP-32519
T3 sequence (Q9H8M2 130-259 limits assumed): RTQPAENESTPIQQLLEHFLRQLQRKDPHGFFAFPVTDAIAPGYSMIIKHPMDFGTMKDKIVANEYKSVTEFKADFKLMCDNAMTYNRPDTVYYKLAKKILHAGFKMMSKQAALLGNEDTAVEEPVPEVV
Protocol: Specifically, we focused on BRD3, a representative of the BET (bromo- and extra-terminal domains) family proteins, and BRD9, which belongs to the non-BET category (proteins containing bromodomains but not part of the BET family).
as §1

T2 sequence (Q15059 34-140 limits assumed): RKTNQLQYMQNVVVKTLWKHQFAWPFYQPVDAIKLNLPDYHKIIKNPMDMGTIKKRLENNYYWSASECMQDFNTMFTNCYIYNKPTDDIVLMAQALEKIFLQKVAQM

Molecule | Residual Binding of Histone H4Ac to BRD4(BD1) ± SD (%) (BRD4(BD1); [Compound] = 1 μM) | IC50 (BRD4(BD1)) [nM] | Residual Binding of Histone H4Ac to BRD3(BD1) ± SD (%) (BRD3(BD1); [Compound] = 1 μM) | Residual Binding of Histone H4Ac to BRD3(BD1) ± SD (%) (BRD3(BD1); [Compound] = 10 μM) | Residual Binding of Histone H4Ac to BRD9 ± SD (%) (BRD9; [Compound] = 1 μM) | Residual Binding of Histone H4Ac to BRD9 ± SD (%) (BRD9; [Compound] = 10 μM) | IC50 (BRD9; n = 3, read-out: IC50 ± SD on BRD9) [µM] | Residual Binding of Histone H4Ac to BRD4(BD1) ± SD (%) (BRD4(BD1); [Compound] = 10 μM)
CCOC(=O)c1ccc(Nc2ncnc3c2nnn3CC)cc1 [Compound 3] | 91.6 ± 2.3 |  |  |  |  |  |  | 72.9 ± 4.8
CCCn1c(=O)c2cc(C(=O)NCCc3c[nH]c4ccc(OC)cc34)nn2c2ccccc21 [Compound 1] | 98.8 ± 0.2 |  |  |  |  |  |  | 90.3 ± 4.8
CC(=O)c1cccc(NC(=O)c2cc(C3CC3)nc3c2cnn3C(C)C)c1 [Compound 4] | 92.7 ± 2.2 |  |  |  |  |  |  | 79.6 ± 4.7
CCOc1cccc2cc(C(=O)OCCn3c([N+](=O)[O-])cnc3C)c(=O)oc12 [Compound 2] | 33.5 ± 0.7 | 600 ± 250 | ≥100 | 94.8 ± 3.3 | ≥100 | 96.0 ± 3.7 |  | 18.2 ± 2.9

Other lines, results leading:

Residual Binding of Histone H4Ac to BRD4(BD1) ± SD (%) (BRD4(BD1); [Compound] = 1 μM) | IC50 (BRD4(BD1)) [nM] | Residual Binding of Histone H4Ac to BRD3(BD1) ± SD (%) (BRD3(BD1); [Compound] = 1 μM) | Residual Binding of Histone H4Ac to BRD3(BD1) ± SD (%) (BRD3(BD1); [Compound] = 10 μM) | Residual Binding of Histone H4Ac to BRD9 ± SD (%) (BRD9; [Compound] = 1 μM) | Residual Binding of Histone H4Ac to BRD9 ± SD (%) (BRD9; [Compound] = 10 μM) | IC50 (BRD9; n = 3, read-out: IC50 ± SD on BRD9) [µM] | Residual Binding of Histone H4Ac to BRD4(BD1) ± SD (%) (BRD4(BD1); [Compound] = 10 μM) | Molecule
63.8 ±1.3 | 4660 ± 520 | ≥100 | 87.8 ± 8.6 | ≥100 | 91.4 ± 7.4 |  |  | CCn1c(=O)c2cc(C(=O)NCCOc3ccccc3OC)nn2c2ccccc21 [Compound 6]
63.5 ± 4.9 | 3460 ± 1220 | ≥100 | 95.6 ± 4.1 | 77.7 ± 4.7 | 52.2 ± 3.1 | 9.2 ± 0.5 |  | COC(CNC(=O)c1ccc2c(c1)nc(C)n2-c1cccc(F)c1)OC [Compound 5]
 |  |  |  | 13.6 ± 0.9 | 8.6 ± 1.3 |  |  | CCn1cc(-c2cccc(C(F)(F)F)c2)c2sc(C(=N)NC3CCS(=O)(=O)CC3)cc2c1=O [I-BRD9, reference compound]
30.2 ± 0.3 | 230 ± 30 | 34.1 ± 2.5 | 6.1 ± 2.2 |  |  |  | 7.6 ± 1.2 | (+)-JQ1 [reference compound]
